20 compounds from patent US10919903B2, “Nitrogen-containing heterocyclic compounds as FXR modulators” (Hepagene Therapeutics (HK) Limited, priority 2016, dated 2021) can be followed below.

The target of the assay is T1, FXR (Homo sapiens, UniProt Q96RI1).
T1 construct: expressed in transfected cells; host or cells: HEK293T
T1 sequence (Q96RI1 1-486): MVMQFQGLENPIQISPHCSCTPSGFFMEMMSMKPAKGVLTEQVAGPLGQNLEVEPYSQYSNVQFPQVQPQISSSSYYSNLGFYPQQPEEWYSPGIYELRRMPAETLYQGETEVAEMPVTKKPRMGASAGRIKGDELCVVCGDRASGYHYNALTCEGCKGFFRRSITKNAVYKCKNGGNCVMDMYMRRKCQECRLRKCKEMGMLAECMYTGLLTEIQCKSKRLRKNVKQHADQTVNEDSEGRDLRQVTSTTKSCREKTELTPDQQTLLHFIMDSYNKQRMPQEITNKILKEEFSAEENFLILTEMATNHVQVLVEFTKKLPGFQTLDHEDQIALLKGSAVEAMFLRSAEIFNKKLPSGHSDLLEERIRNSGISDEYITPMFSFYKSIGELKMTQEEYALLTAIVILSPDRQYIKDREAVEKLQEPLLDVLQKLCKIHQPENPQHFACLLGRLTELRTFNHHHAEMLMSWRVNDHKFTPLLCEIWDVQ
As to the kind of experiment: FXR Transactivation Assay (GAL4 luciferase reporter, pBIND-FXR in HEK293T). The format is cell-based. The conditions noted are these: HEK293T cells. The protocol:
FXR Transactivation Assay
pGL4.35 [luc2P/9XGAL4 UAS/Hygro]
Steady-Glo™ Luciferase Assay System
GW4064 as a positive control
• 1. Hek293T cells were plated at 1.1*10^6/ml into a 100 mm dish. • 2. […] Cells were incubated at 37° C. under 5% CO2 atmosphere. • 3. All of compounds were 3-fold serial diluted from 10 mM stock for 10 doses in DMSO. • 4. Transfer compound dilutions into 384 well assay plates using liquid workstation. • 5. Seed 25 ul HEK293T cells into 384 well assay plate (prepared step 4) at 0.6*10^5/ml. Cells were incubated at 37° C. under 5% CO2 atmosphere overnight. • 6. Add 25 ul steady-Glo™ Luciferase Assay Reagent into each well of 384-well assay plate. • 7. […] Calculate EC50 by fitting % Activity values and log of compound concentrations to nonlinear regression (dose response−variable slope) with Graphpad 5.0. FXR Coactivator Assay Reagents: LanthaScreen™ TR-FRET Farnesoid X Receptor Coactivator Assay GW4064 as a positive control Process: • 1. All of compounds were 3-fold serial diluted from 10 mM stock for 10 doses in DMSO. • 2. Dilute each 100× agonist serial dilution to 2× using Complete Coregulator buffer G. • 3. Transfer 10 μl of each of the 2× agonist serial dilutions to 384 well assay plates. • 4. Add 5 μl of 4×FXR-LBD to 384 well assay plates. • 5. […] Incubate at room temperature protected from light. • 7. […] Calculate EC50 by fitting % Activity values and log of compound concentrations to nonlinear regression (dose response−variable slope) with Graphpad 5.0.
On the technique in general: In a reporter assay the amount or activity of a reporter protein is the signal.

The EC50 is the concentration giving half of the maximal effect. A low value points to a more potent agent. As to “2-(4-[[3-(2,6-Dichlorophenyl)-5-(propan-2-yl)-1,2-oxazol-4-yl]methyl]piperazin-1-yl)-1-benzofuran-5-carboxylic acid [Compound X-01]”, the EC50 fell in the range of 0.401 to 5 µM.
In the case of `COc1cc(C(=O)O)cc2sc(N3CCN(Cc4c(-c5c(Cl)cccc5Cl)noc4C(C)C)C(C(C)C)C3)nc12` (racemic) [II-29] it was 0.401 to 5 µM; in that of `COc1cc(C(=O)O)cc2sc(N3CCN(Cc4c(-c5c(Cl)cccc5Cl)noc4C(C)C)C4CCCCC43)nc12` (racemic) [II-39], 0.101 to 0.4 µM.
In the case of `COc1cc(C(=O)O)cc2sc(N3CCN(Cc4c(-c5c(Cl)cccc5Cl)noc4C(C)C)CC3CO)nc12` (centres unmarked) [II-07, 2-(4-[[3-(2,6-Dichlorophenyl)-5-(propan-2-yl)-1,2-oxazol-4-yl]methyl]-2-(hydroxymethyl)piperazin-1-yl)-4-methoxy-1,3-benzothiazole-6-carboxylic acid] it was 0.401 to 5 µM; in that of `COc1cc(C(=O)O)cc2sc(N3CCN(Cc4c(C(C)C)cnn4-c4c(Cl)cccc4Cl)CC3C)nc12` (centres unmarked) [II-14], 0.401 to 5 µM.
In the case of `COc1cc(C(=O)O)cc2sc(N3CCN(Cc4c(C(C)C)cnn4-c4c(Cl)cccc4Cl)CC3C)nc12` (centres unmarked) [II-15] it was 0.01 to 0.1 µM; in that of `COc1cc(C(=O)O)cc2sc(N3CCN(Cc4c(-c5c(Cl)cccc5Cl)noc4C(C)C)CC34CC4)nc12` [II-17], 0.401 to 5 µM; in that of `CCC1CN(c2nc3c(OC)cc(C(=O)O)cc3s2)CCN1Cc1c(-c2c(Cl)cccc2Cl)noc1C1CC1` (centres unmarked) [II-21], 0.101 to 0.4 µM.
In turn, `COc1cc(C(=O)O)cc2sc(N3CCN(Cc4c(-c5c(Cl)cccc5Cl)noc4C4CC4)C(C)(C)C3)nc12` [II-23] displayed a half-maximal effective concentration (EC50) of 0.401 to 5 µM.
In the case of `COc1cc(C(=O)O)cc2sc(N3CCN(Cc4c(-c5c(Cl)cccc5Cl)noc4C4CC4)C(C)C3)nc12` (centres unmarked) [II-25] it was 0.101 to 0.4 µM; in that of `COc1cc(C(=O)O)cc2sc(N3C4CCC3CN(Cc3c(-c5c(Cl)cccc5Cl)noc3C3CC3)C4)nc12` [II-36], 0.01 to 0.1 µM; in that of `COc1cc(C(=O)O)cc2sc(N3CCC(Cc4c(C(C)C)cnn4-c4c(Cl)cccc4Cl)CC3)nc12` [II-44], 0.401 to 5 µM.
In the case of `COc1cc(C(=O)O)cc2sc(N3CCC(Cc4c(-c5c(Cl)cccc5Cl)noc4C(C)C)C[C@H]3C)nc12` (stereo partly drawn) [II-45, 2-((2R)-4-((3-(2,6-Dichlorophenyl)-5-isopropylisoxazol-4-yl)methyl)-2-methylpiperidin-1-yl)-4-methoxybenzo[d]thiazole-6-carboxylic acid] it was 0.01 to 0.1 µM.
For `COc1cc(C(=O)O)cc2sc(N3CCC(Cc4c(-c5c(Cl)cncc5Cl)noc4C4CC4)CC3)nc12` [II-49], the EC50 was in the range of 0.401 to 5 µM.
As for `COc1cc(C(=O)O)cc2sc(N3CCC(Cc4c(-c5ccccc5OC(F)(F)F)noc4C4CC4)CC3)nc12` [II-50], the EC50 fell in the range of 0.01 to 0.1 µM.
Compound `CC(C)c1onc(-c2c(Cl)cccc2Cl)c1CC1CCN(c2nc3ccc(C(=O)O)cc3s2)CC1` [III-08] showed an EC50 of 0.401 to 5 µM.
In the case of `Cc1cc(C(=O)O)cc2sc(N3CCC(Cc4c(C(C)C)cnn4-c4c(Cl)cccc4Cl)CC3)nc12` [IV-10] it was 0.101 to 0.4 µM.
In the case of `COc1cc(C#N)cc2sc(N3CCN(Cc4c(-c5c(Cl)cccc5Cl)noc4C(C)C)CC3)nc12` [IX-01, 2-(4-((3-(2,6-Dichlorophenyl)-5-isopropylisoxazol-4-yl)methyl)piperazin-1-yl)-4-methoxybenzo[d]thiazole-6-carbonitrile] it was 0.401 to 5 µM.
In the case of `COc1cc(-c2nnn[nH]2)cc2sc(N3CCN(Cc4c(-c5c(Cl)cccc5Cl)noc4C(C)C)CC3)nc12` [IX-02, 3-(2,6-Dichlorophenyl)-5-isopropyl-4-((4-(4-methoxy-6-(1H-tetrazol-5-yl)benzo[d]thiazol-2-yl)piperazin-1-yl)methyl)isoxazole] it was 0.401 to 5 µM; in that of `CC(C)c1onc(-c2c(Cl)cccc2Cl)c1CC1CCN(c2nc3c(F)cc(C(=O)O)cc3s2)CC1` [VI-11], 0.401 to 5 µM.
